From patent US9580390B2, “Indazole compounds as kinase inhibitors and method of treating cancer with same” (University Health Network, priority 2011, dated 2017) come the findings set out here.

Each structure is given as a SMILES string.

Test [1] relates to ovarian cancer cells (PA-1). In words: Cancer cell line growth inhibition (SRB assay). The format is cell-based. Conditions: Homo sapiens, PA-1; read-out: Cancer Cell Line GI50 Range PA-1.
Protocol: Breast cancer cells (MDA-MB-231), colon cancer cells (HCT116) and ovarian cancer cells (PA-1) were seeded (1000 to 4000 in 80 μl per well depending on the cell growth rate) into 96 well plates 24 hours before compound overlay. Compounds were prepared as 10 mM stock solutions in 100% DMSO which were diluted with DMEM (Dulbecco's Modified Eagle's Medium) cell growth Medium (Invitrogen, Burlington, ON, Canada) containing 10% FBS (Fetal Bovine Serum) to concentrations ranging from 50 nM to 250 μM. Aliquots (20 μl) from each concentration were overlaid to 80 μl of the pre-seeded cells in the 96 well plates to make final concentrations of 10 nM to 50 μM. The cells were cultured for 5 days before the Sulforhodamine B assay (SRB) was performed to determine the compound's cell growth inhibition activity.
Sulforhodamine B (purchased from Sigma, Oakville, ON, Canada) is a water-soluble dye that binds to the basic amino acids of the cellular proteins. Thus, colorimetric measurement of the bound dye provides an estimate of the total protein mass that is related to the cell number. the cells are fixed in situ by gently aspirating off the culture media and adding 50 μl ice cold 10% Trichloroacetic Acid (TCA) per well and incubate at 4° C. for 30-60 min. The plates are washed with H2O five times and allowed to air dry for 5 min. Addition of 50 μl 0.4% (w/v) SRB solution in 1% (v/v) acetic acid to each well and incubation for 30 min at RT completes the staining reaction. Following staining, plates are washed four times with 1% acetic acid to remove unbound dye and then allowed to air dry for 5 min. The stain is solubilized with 100 μl of 10 mM Tris pH 10.5 per well. Absorbance is read at 570 nm.
The percentage (%) of relative growth inhibition was calculated by comparing to DMSO treated only cells (100%). GI50's were determined for compounds with cytotoxic activity. The GI50 was calculated using GraphPad PRISM software (GraphPad Software, Inc., San Diego, Calif., USA).
Test [2] addresses T1, human TTK (Homo sapiens, UniProt P33981).
T1 construct: amino terminal GST fusion of full length human TTK; purchased Invitrogen
T1 sequence (P33981 1-857): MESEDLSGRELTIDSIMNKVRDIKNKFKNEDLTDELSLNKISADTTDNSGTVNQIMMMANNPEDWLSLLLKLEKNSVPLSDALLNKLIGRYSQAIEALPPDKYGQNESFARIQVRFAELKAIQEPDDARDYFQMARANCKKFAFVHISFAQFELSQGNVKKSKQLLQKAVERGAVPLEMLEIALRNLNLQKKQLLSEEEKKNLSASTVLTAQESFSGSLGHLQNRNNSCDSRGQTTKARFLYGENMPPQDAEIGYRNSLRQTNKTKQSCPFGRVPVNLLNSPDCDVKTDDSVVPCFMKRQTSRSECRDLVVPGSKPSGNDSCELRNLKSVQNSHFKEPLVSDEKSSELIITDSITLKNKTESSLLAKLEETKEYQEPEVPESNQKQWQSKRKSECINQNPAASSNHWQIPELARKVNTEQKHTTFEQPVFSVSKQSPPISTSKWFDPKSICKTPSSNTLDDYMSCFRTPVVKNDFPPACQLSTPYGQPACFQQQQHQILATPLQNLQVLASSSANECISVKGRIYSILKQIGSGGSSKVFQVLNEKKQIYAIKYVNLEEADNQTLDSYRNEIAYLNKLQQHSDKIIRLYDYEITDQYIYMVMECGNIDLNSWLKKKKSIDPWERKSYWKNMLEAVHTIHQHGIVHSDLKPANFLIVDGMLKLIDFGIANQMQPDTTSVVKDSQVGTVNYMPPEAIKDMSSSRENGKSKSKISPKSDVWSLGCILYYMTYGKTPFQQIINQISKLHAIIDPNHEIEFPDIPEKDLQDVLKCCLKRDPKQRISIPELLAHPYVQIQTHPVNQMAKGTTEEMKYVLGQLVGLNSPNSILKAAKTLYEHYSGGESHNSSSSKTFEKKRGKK
In words: TTK inhibition assay (indirect ELISA). The format is biochemical. Conditions: read-out: TTK IC50 Range.
Protocol: Active TTK was purchased from Invitrogen as an amino terminal GST fusion of full length human TTK. Amino terminal 6 histidine, sumo tagged human TTK (residues 1-275) was expressed in E. coli, and purified to >95% homogeneity by Ni^2+ agarose, gel filtration, and ion exchange chromatography.
TTK activity was measured using an indirect ELISA detection system. GST-TTK (0.68 nM) was incubated in the presence of 16 μM ATP (Sigma cat# A7699), 50 mM Hepes pH 7.2, 1 mM EGTA, 10 mM MgCl2, and 0.1% Pluronic in a 96 well microtitre plate pre-coated with amino terminal 6 histidine, sumo tagged TTK (amino acid residues 1-275). The reaction was allowed to proceed for 30 minutes, followed by 5 washes of the plate with Wash Buffer (phosphate buffered saline supplemented with 0.2% Tween 20), and incubation for 30 minutes with a 1:3000 dilution of primary antibody (Cell Signaling cat# 9381). The plate was washed 5 times with Wash Buffer, incubated for 30 minutes in the presence of secondary antibody coupled to horse radish peroxidase (BioRad cat# 1721019, 1:3000 concentration), washed an additional 5 times with Wash Buffer, and incubated in the presence of TMB substrate (Sigma cat# T0440). The colourimetric reaction was allowed to continue for 5 minutes, followed by addition of stop solution (0.5 N sulphuric acid), and quantified by detection at 450 nm with either a monochromatic or filter based plate reader (Molecular Devices M5 or Beckman DTX880, respectively).
Compounds were pre-incubated in the presence of enzyme for 5 minutes prior to addition of ATP and the activity remaining quantified using the above described activity assay. The % Inhibition of a compound was determined using the following formula: % Inhibition=100×(1−(experimental value−background value)/(high activity control−background value)). The IC50 value was determined using a non-linear 4 point logistic curve fit (XLfit4, IDBS) with the formula: (A+(B/(1+((x/C)^D)))), where A=background value, B=range, C=inflection point, D=curve fit parameter.

Test [3] deals with Breast cancer cells. In words: Cancer cell line growth inhibition (SRB assay). The format is cell-based. The conditions noted are these: Homo sapiens; MDA-MB-468; read-out: Cancer Cell Line GI50 Range MDA-MB-468.
The test system of test [4] is colon cancer cells (HCT116). In words: Cancer cell line growth inhibition (SRB assay). The conditions noted are these: Homo sapiens, HCT-116; read-out: Cancer Cell Line GI50 Range HCT116. The format is cell-based.
Test [5] concerns TICs (Colon 12). Kind of test: Colon tumor-initiating cell growth inhibition (Alamar Blue). The class given is cell-based. Conditions: 216 h; Colon 12 TICs, 9 days; read-out: Tumor Initiating Cell GI50 Range Colon 12.
Description: Materials and Methods: Non-tissue or tissue cultured treated T-75 flask and 96-well plates were purchased from VWR. Vitamin B-27 supplement, MEM NEAA (minimum essential medium non essential amino acids), sodium pyruvate, L-glutamine, N2 supplement, penicillin-streptomycin and fungizone/amphotericin B were obtained from Invitrogen. Lipid mixture, heparin and EGF were purchased from Sigma; bFGF from BD Biosciences. Tumor Initiating Cells (TICs) from colon were routinely maintained using non-tissue cultured treated T-75 flasks in DMEM:F12 medium containing 0.2×B-27 supplement, 4 ug/ml heparin, 1×MEM NEAA, 1× sodium pyruvate, 1 mM glutamine, 10 pg/ul bFGF, 20 pg/ul EGF, 1×N2 supplement, lipid mixture, penicillin-streptomycin and fungizone/amphotericin B. Ovarian TICs were routinely maintained using tissue cultured treated T-75 flasks in DMEM:F12 medium containing 1×B-27 supplement, 4 ug/ml heparin, 20 pg/ul bFGF, 20 pg/ul EGF and penicillin-streptomycin.
Assay Protocol: Compounds described herein were dissolved in DMSO and further diluted in cell culture medium for GI50 determination. Colon TICs were trypsinized and seeded into non-tissue cultured treated 96-well plates with 4,000 cells/well. After 24 h, compound was added into the cell culture at different concentrations, and the final concentration of DMSO was adjusted to 0.1%. Cells were then cultured at 37° C. for 9 days. Ovarian TICs were trypsinized and seeded into tissue cultured treated 96-well plates with 1,000 cells/well. After 24 h, compound was added into the cell culture at different concentrations, and the final concentration of DMSO was adjusted to 0.1%. Cells were then cultured at 37° C. for 6 days. Cell viability was assessed by Alamar Blue assay: 10 ul of Alamar Blue was added into each well. After 4 hours incubation at 37° C., fluorescence was recorded at excitation 544 and emission 590. GI50 (Growth inhibition) was calculated using GraphPad Prism 4.0 software.

In the case of `O=C(N[C@H](c1ncccn1)C1CCCC1)c1ccc2[nH]nc(-c3ccc(N4C5CCC4CC(O)C5)cc3)c2c1` (stereo partly drawn) [Example A367, N-((S)-cyclopentyl(pyrimidin-2-yl)methyl)-3-(4-((1R,3S,5S)-3-hydroxy-8-azabicyclo[3.2.1]octan-8-yl)phenyl)-1H-indazole-5-carboxamide], the GI50 in test [1], in test [3], in test [4] and in test [5] was below 100 nM each time. Further, in test [2], the IC50 was below 100 nM.

Turning to `O=C(N[C@H](c1ccccn1)C1CCCC1)c1ccc2[nH]nc(-c3ccc(N4CC(N5CCOCC5)C4)cc3)c2c1` [Example A314], the concentration for 50% growth inhibition (GI50) in test [1], in test [3], in test [4] and in test [5] was below 100 nM each time. Besides, in test [2], the IC50 was below 100 nM.

Turning to `CC(C)[C@H](NC(=O)c1ccc2[nH]nc(-c3ccc(N4CC(N5CCOCC5)C4)cc3)c2c1)c1ccccc1Cl` [Example A313, (S)-N-(1-(2-chlorophenyl)-2-methylpropyl)-3-(4-(3-morpholinoazetidin-1-yl)phenyl)-1H-indazole-5-carboxamide], the GI50 in test [1], in test [3], in test [4] and in test [5] was below 100 nM each time. Moreover, the IC50 in test [2] is below 100 nM.

As for `O=C(N[C@@H](c1ccccn1)C1CCCC1)c1ccc2[nH]nc(-c3ccc(N4C5CCC4CC(O)C5)cc3)c2c1` (stereo partly drawn) [Example A364, N-((R)-cyclopentyl(pyridin-2-yl)methyl)-3-(4-((1R,3R,5S)-3-hydroxy-8-azabicyclo[3.2.1]octan-8-yl)phenyl)-1H-indazole-5-carboxamide], the concentration for 50% growth inhibition (GI50) in test [1], in test [3], in test [4] and in test [5] was below 100 nM throughout. For the same compound, the concentration for half-maximal inhibition (IC50) in test [2] is below 100 nM.

Regarding `O=C(N[C@H](c1ccccn1)C1CC1)c1ccc2[nH]nc(-c3ccc(N4[C@@H]5CC[C@H]4COC5)cc3)c2c1` [Example A414, 3-(4-((1R,5S)-3-oxa-8-azabicyclo[3.2.1]octan-8-yl)phenyl)-N-((S)-cyclopropyl(pyridin-2-yl)methyl)-1H-indazole-5-carboxamide], the GI50 in test [1], in test [3], in test [4] and in test [5] was below 100 nM throughout. In test [2], the half-inhibitory concentration (IC50) is below 100 nM.

For `O=C(N[C@@H](c1ncccn1)C1CCCC1)c1ccc2[nH]nc(-c3ccc(N4C5CCC4CC(O)C5)cc3)c2c1` (stereo partly drawn) [Example A366, N-((R)-cyclopentyl(pyrimidin-2-yl)methyl)-3-(4-((1R,3R,5S)-3-hydroxy-8-azabicyclo[3.2.1]octan-8-yl)phenyl)-1H-indazole-5-carboxamide], the GI50 in test [1], in test [3], in test [4] and in test [5] was below 100 nM each time. Also, the IC50 in test [2] is below 100 nM.

For `O=C(N[C@@H](c1ncccn1)C1CCCC1)c1ccc2[nH]nc(-c3ccc(N4CC(C5COC5)C4)cc3)c2c1` [Example A312, (R)-N-(cyclopentyl(pyrimidin-2-yl)methyl)-3-(4-(3-(oxetan-3-yl)azetidin-1-yl)phenyl)-1H-indazole-5-carboxamide], the GI50 in test [1], in test [3] and in test [4] was below 100 nM each time. The half-inhibitory concentration (IC50) in test [2] was below 100 nM.

Turning to `O=C(N[C@@H](c1ccccc1F)C1CC1)c1ccc2[nH]nc(-c3ccc(N4CCN(C5COC5)CC4)cc3)c2c1` [Example A270, (R)-N-(cyclopropyl(2-fluorophenyl)methyl)-3-(4-(4-(oxelan-3-yl)piperazin-1-yl)phenyl)-1H-indazole-5-carboxamide], the results for the concentration for 50% growth inhibition (GI50) in test [1], in test [3] and in test [4] were below 100 nM, 100 to 500 nM and below 100 nM, respectively. In addition, the IC50 in test [2] is below 100 nM.

As to `CC(C)[C@H](NC(=O)c1ccc2[nH]nc(-c3ccc(C4CCN(C5COC5)CC4)cc3)c2c1)c1ccccc1Cl` [Example A406, (S)-N-(1-(2-chlorophenyl)-2-methylpropyl)-3-(4-(4-(oxelan-3-yl)piperidin-1-yl)phenyl)-1H-indazole-5-carboxamide], the GI50 in test [1], in test [3] and in test [4] was above 500 nM in each case. In test [2], the half-inhibitory concentration (IC50) is below 100 nM.

`CC(C)C(NC(=O)c1ccc2[nH]nc(-c3ccc(O[C@H]4C[C@H]5CC[C@@H](C4)N5C4COC4)cc3)c2c1)c1ccccc1Cl` (stereo partly drawn) [Example A324, N-(1-(2-chlorophenyl)-2-methylpropyl)-3-(4-(((1R,3R,5S)-8-(oxetan-3-yl)-8-azabicyclo[3.2.1]octan-3-yl)oxy)phenyl)-1H-indazole-5-carboxamide]: the GI50 in test [1], in test [3] and in test [4] was 100 to 500 nM throughout. Also, the IC50 in test [2] is below 100 nM.

`O=C(NCC1(N2CCOCC2)CCC(F)(F)CC1)c1ccc2[nH]nc(-c3ccc(N4CCOCC4)cc3)c2c1` [Example A460, N-((4,4-difluoro-1-morpholinocyclohexyl)methyl)-3-(4-morpholinophenyl)-1H-indazole-5-carboxamide]: the 50% growth inhibitory concentration (GI50) in test [1], in test [3] and in test [4] was above 500 nM each time. Moreover, in test [2], the half-inhibitory concentration (IC50) is below 100 nM.

Regarding `O=C(N[C@H](c1ccccn1)C1CC1)c1cc2c(-c3ccc(N4C5CCC4CC(O)C5)cc3)n[nH]c2cc1F` (stereo partly drawn) [Example A271, N-((S)-cyclopropyl(pyridin-2-yl)methyl)-6-fluoro-3-(4-((1R,3R,5S)-3-hydroxy-8-azabicyclo[3.2.1]octan-8-yl)phenyl)-1H-indazole-5-carboxamide], the values for the GI50 in test [1], in test [3] and in test [4] were 100 to 500 nM, above 500 nM and above 500 nM, respectively. Besides, the concentration for half-maximal inhibition (IC50) in test [2] was below 100 nM.

On to `CN1CCC(Oc2ccc(-c3n[nH]c4ccc(C(=O)NCC5(OC6CCCC6)CCCCC5)cc34)cc2)CC1` [Example A442, N-((1-(cyclopentyloxy)cyclohexyl)methyl)-3-(4-((1-methylpiperidin-4-yl)oxy)phenyl)-1H-indazole-5-carboxamide], for which the GI50 in test [1], in test [3] and in test [4] was above 500 nM throughout. Further, in test [2], the half-maximal inhibitory concentration (IC50) is below 100 nM.

Consider `CC(C)C(NC(=O)c1ccc2[nH]nc(-c3ccc(O[C@H]4C[C@H]5CC[C@@H](C4)N5C)cc3)c2c1)c1ccccc1F` (stereo partly drawn) [Example A281, N-(1-(2-fluorophenyl)-2-methylpropyl)-3-(4-(((1R,3R,5S)-8-methyl-8-azabicyclo[3.2.1]octan-3-yl)oxy)phenyl)-1H-indazole-5-carboxamide], for which the values for the GI50 in test [1], in test [3] and in test [4] were below 100 nM, 100 to 500 nM and below 100 nM, respectively. The IC50 in test [2] was below 100 nM.

On to `O=C(N[C@@H](c1ccccn1)C1CC1)c1ccc2[nH]nc(-c3ccc(N4CC(N5CCOCC5)C4)cc3)c2c1` [Example A316, (R)-N-(cyclopropyl(pyridin-2-yl)methyl)-3-(4-(3-morpholinoazetidin-1-yl)phenyl)-1H-indazole-5-carboxamide], for which the GI50 in test [1], in test [3] and in test [4] was 100 to 500 nM in each case. Also, the half-maximal inhibitory concentration (IC50) in test [2] is below 100 nM.

With `CC(C)C[C@H](NC(=O)c1ccc2[nH]nc(-c3ccc(N4C5CCC4COC5)cc3)c2c1)c1ccccc1Cl` [Example A413, 3-(4-((1R,5S)-3-oxa-8-azabicyclo[3.2.1]octan-8-yl)phenyl)-N-((S)-(2-chlorophenyl)-3-methylbulyl)-1H-indazole-5-carboxamide], the 50% growth inhibitory concentration (GI50) is below 100 nM in test [1], 100 to 500 nM in test [3] and below 100 nM in test [4]. Moreover, the IC50 in test [2] is below 100 nM.

For the compound `CC(C)[C@@H](NC(=O)c1ccc2[nH]nc(-c3ccc(N4CCN(C5COC5)CC4)cc3)c2c1)c1ccccc1Cl` [Example A412, (R)-N-(1-(2-chlorophenyl)-2-methylpropyl)-3-(4-(4-(oxetan-3-yl)piperazin-1-yl)phenyl)-1H-indazole-5-carboxamide], the GI50 is below 100 nM in test [1], 100 to 500 nM in test [3] and below 100 nM in test [4]. In addition, in test [2], the IC50 is below 100 nM.

On to `CN1CC2(CC(=O)c3cc(-c4n[nH]c5ccc(C(=O)N[C@H](c6ccccc6)C6CC6)cc45)ccc3O2)C1` [Example A254, (S)-N-(cyclopropyl(phenyl)methyl)-3-(1-methyl-4′-oxospiro[azetidine-3,2′-chroman]-6′-yl)-1H-indazole-5-carboxamide], for which the results for the GI50 in test [1], in test [3] and in test [4] were 100 to 500 nM, above 500 nM and 100 to 500 nM, respectively. The half-maximal inhibitory concentration (IC50) in test [2] was below 100 nM.
